From patent US20240279278A1, “NMU RECEPTOR 2 AGONISTS” (Boehringer Ingelheim International GmbH, priority 2023, published 2024)
Residues, ends and D or L forms follow the SMILES beside them.

Key:
Assay type in all cases: cell-based
[1] = target: T1, human NMUR1 receptor (Homo sapiens, UniProt Q9HB89); experiment: IP1 Gq HTRF assay, activation of human NMUR1 in buffer; settings: CHO-K1 cells expressing human NMUR1, stimulation buffer with 0.1% BSA; read-out: EC50 (hNMUR1) buffer
T1 construct: expressed in transfected cells; host or cells: CHO-K1
T1 sequence (Q9HB89 1-426): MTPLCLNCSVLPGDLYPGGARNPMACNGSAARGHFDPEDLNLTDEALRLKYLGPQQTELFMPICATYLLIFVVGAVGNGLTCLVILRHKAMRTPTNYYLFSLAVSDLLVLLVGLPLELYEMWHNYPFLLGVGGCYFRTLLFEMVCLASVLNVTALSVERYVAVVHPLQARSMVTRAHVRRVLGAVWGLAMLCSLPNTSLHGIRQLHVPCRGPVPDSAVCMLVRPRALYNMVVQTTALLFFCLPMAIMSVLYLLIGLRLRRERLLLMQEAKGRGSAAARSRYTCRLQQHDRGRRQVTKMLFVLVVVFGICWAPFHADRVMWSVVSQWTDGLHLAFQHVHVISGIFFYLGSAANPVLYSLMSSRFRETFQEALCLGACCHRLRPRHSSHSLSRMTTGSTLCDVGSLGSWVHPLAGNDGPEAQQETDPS
How it was run: (§1)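 CHO-K1 cells stably expressing human NMUR1 or NMUR2, seeded 24 h before assay, stimulated with peptide agonists (8-point dose-response, 1% DMSO final) in HEPES/HBSS buffer with 50 mM LiCl and 0.1% BSA, pH 7.4, 1 h at 37 °C. IP1 accumulation read by HTRF competition (665/620 nm); EC50 from 4-parameter sigmoidal fit.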

[2] = target: T2, human NMUR2 receptor (Homo sapiens, UniProt Q9GZQ4); experiment: IP1 Gq HTRF assay, activation of human NMUR2 in buffer; design: expressed in transfected cells; host or cells: CHO-K1; settings: CHO-K1 cells expressing human NMUR2, stimulation buffer with 0.1% BSA; read-out: EC50 (hNMUR2) buffer
How it was run: as §1

[3] = target: T2, human NMUR2 receptor; experiment: IP1 Gq HTRF assay, activation of human NMUR2 in human plasma; design: expressed in transfected cells; host or cells: CHO-K1; settings: CHO-K1 cells expressing human NMUR2, 100% human plasma; read-out: EC50 (hNMUR2) human plasma
How it was run: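 CHO-K1 cells stably expressing human NMUR2 exposed to peptide agonists (8-point dose-response) in 100% human plasma with 50 mM LiCl, 1% DMSO, for 1 h at 37° C. IP1 accumulation read by HTRF competition (665/620 nm ratio). EC50 from 4-parameter sigmoidal fit.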

T2 sequence (Q9GZQ4 whole entry): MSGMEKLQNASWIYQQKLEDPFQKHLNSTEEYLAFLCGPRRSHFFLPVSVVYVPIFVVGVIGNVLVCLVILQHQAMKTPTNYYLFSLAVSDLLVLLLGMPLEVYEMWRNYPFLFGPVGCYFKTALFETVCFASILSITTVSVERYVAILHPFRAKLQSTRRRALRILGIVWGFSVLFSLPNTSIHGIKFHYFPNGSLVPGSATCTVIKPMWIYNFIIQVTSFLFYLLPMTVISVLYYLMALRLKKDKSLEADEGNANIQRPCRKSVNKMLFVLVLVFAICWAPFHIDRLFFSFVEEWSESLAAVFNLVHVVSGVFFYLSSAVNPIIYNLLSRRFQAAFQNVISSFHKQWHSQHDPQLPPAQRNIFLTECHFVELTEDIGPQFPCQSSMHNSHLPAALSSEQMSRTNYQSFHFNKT

CCCC[C@H](NC(=O)[C@H](CC(C)C)N(C)C(=O)[C@H](Cc1ccccc1)NC(=O)[C@H](Cc1ccc(O)cc1)NC(=O)CN1CCN(CCNC(=O)CN(C)C(=O)CN(C)C(=O)CN(C)C(=O)CN(C)C(=O)CN(C)C(=O)CN(C)C(=O)CN(C)C(=O)CN(C)C(=O)CN(C)C(=O)CN(C)C(=O)CN(C)C(=O)CN(C)C(=O)CC[C@H](NC(=O)CC[C@H](NC(=O)CC[C@H](NC(=O)CC[C@H](NC(=O)CCCCCCCCCCCCCCCCCCC(=O)O)C(=O)O)C(=O)O)C(=O)O)C(=O)O)CC1)C(=O)N[C@@H](CCN)C(=O)N(C)[C@@H](C)C(=O)N[C@@H](CCCNC(=N)N)C(=O)NCC(N)=O [Compound 31, C20DA-gGlu4-Sar12-AEPipAc-Tyr-Phe-NMeLeu-Nle-Dbu-NMeAla-Arg-Gly-NH2]
EC50 [1]: > 1000 nM
EC50 [2]: 3.7 nM
EC50 [3]: 14.6 nM

CCCC[C@H](NC(=O)[C@H](CC(C)C)N(C)C(=O)[C@H](Cc1ccccc1)NC(=O)[C@H](Cc1ccc(O)cc1)NC(=O)CN1CCN(CCNC(=O)CN(C)C(=O)CN(C)C(=O)CN(C)C(=O)CN(C)C(=O)CN(C)C(=O)CN(C)C(=O)CN(C)C(=O)CN(C)C(=O)CN(C)C(=O)CN(C)C(=O)CN(C)C(=O)CN(C)C(=O)CN(C)C(=O)CN(C)C(=O)CN(C)C(=O)CC[C@H](NC(=O)CC[C@H](NC(=O)CC[C@H](NC(=O)CCCCCCCCCCCCCCCCC(=O)O)C(=O)O)C(=O)O)C(=O)O)CC1)C(=O)N[C@@H](CCCCN)C(=O)N1CCC[C@H]1C(=O)N[C@@H](CCCNC(=N)N)C(=O)NCC(N)=O [Compound 46, C18DA-gGlu3-Sar15-AEPipAc-Tyr-Phe-NMeLeu-Nle-Lys-Pro-Arg-Gly-NH2] (HELM PEPTIDE1{[O=C(O)CCCCCCCCCCCCCCCCC(=O)[*:2]].[gGlu].[gGlu].[gGlu].[Sar].[Sar].[Sar].[Sar].[Sar].[Sar].[Sar].[Sar].[Sar].[Sar].[Sar].[Sar].[Sar].[Sar].[Sar].[O=C(CN1CCN(CCN[*:1])CC1)[*:2]].Y.F.[meL].[Nle].K.P.R.G.[am]}$$$$V2.0)
EC50 [1]: > 1000 nM
EC50 [2]: 13 nM
EC50 [3]: 26.2 nM

CCCC[C@H](NC(=O)[C@H](CC(C)C)N(C)C(=O)[C@H](Cc1ccccc1)NC(=O)[C@H](Cc1ccc(O)cc1)NC(=O)CN1CCN(CCNC(=O)CN(C)C(=O)CN(C)C(=O)CN(C)C(=O)CN(C)C(=O)CN(C)C(=O)CN(C)C(=O)CN(C)C(=O)CN(C)C(=O)CN(C)C(=O)CN(C)C(=O)CN(C)C(=O)CN(C)C(=O)CN(C)C(=O)CN(C)C(=O)CN(C)C(=O)CC[C@H](NC(=O)CC[C@H](NC(=O)CC[C@H](NC(=O)CC[C@H](NC(=O)CCCCCCCCCCCCCCCCCCC(=O)O)C(=O)O)C(=O)O)C(=O)O)C(=O)O)CC1)C(=O)N[C@@H](CCN)C(=O)N(C)[C@@H](C)C(=O)N[C@@H](CCCNC(=N)N)C(=O)NCC(N)=O [Compound 16, C20DA-gGlu4-Sar15-AEPipAc-Tyr-Phe-NMeLeu-Nle-Dbu-NMeAla-Arg-Gly-NH2] (HELM PEPTIDE1{[O=C(O)CCCCCCCCCCCCCCCCCCC(=O)[*:2]].[gGlu].[gGlu].[gGlu].[gGlu].[Sar].[Sar].[Sar].[Sar].[Sar].[Sar].[Sar].[Sar].[Sar].[Sar].[Sar].[Sar].[Sar].[Sar].[Sar].[O=C(CN1CCN(CCN[*:1])CC1)[*:2]].Y.F.[meL].[Nle].[Dab].[meA].R.G.[am]}$$$$V2.0)
EC50 [1]: > 1000 nM
EC50 [2]: 3.3 nM
EC50 [3]: 11 nM

CCCC[C@H](NC(=O)[C@H](CC(C)C)N(C)C(=O)[C@H](Cc1ccccc1)NC(=O)[C@H](Cc1ccc(O)cc1)NC(=O)CN1CCN(CCNC(=O)CN(C)C(=O)CN(C)C(=O)CN(C)C(=O)CN(C)C(=O)CN(C)C(=O)CN(C)C(=O)CN(C)C(=O)CN(C)C(=O)CN(C)C(=O)CN(C)C(=O)CN(C)C(=O)CN(C)C(=O)CN(C)C(=O)CN(C)C(=O)CN(C)C(=O)CC[C@H](NC(=O)CC[C@H](NC(=O)CC[C@H](NC(=O)CC[C@H](NC(=O)CCCCCCCCCCCCCCCCCCC(=O)O)C(=O)O)C(=O)O)C(=O)O)C(=O)O)CC1)C(=O)N[C@@H](CCCN)C(=O)N(C)[C@@H](C)C(=O)N[C@@H](CCCNC(=N)N)C(=O)NCC(N)=O [Compound 14, C20DA-gGlu4-Sar15-AEPipAc-Tyr-Phe-NMeLeu-Nle-Orn-NMeAla-Arg-Gly-NH2] (HELM PEPTIDE1{[O=C(O)CCCCCCCCCCCCCCCCCCC(=O)[*:2]].[gGlu].[gGlu].[gGlu].[gGlu].[Sar].[Sar].[Sar].[Sar].[Sar].[Sar].[Sar].[Sar].[Sar].[Sar].[Sar].[Sar].[Sar].[Sar].[Sar].[O=C(CN1CCN(CCN[*:1])CC1)[*:2]].Y.F.[meL].[Nle].[Orn].[meA].R.G.[am]}$$$$V2.0)
EC50 [1]: 1400 nM
EC50 [2]: 2.9 nM
EC50 [3]: 10.3 nM

CCCC[C@H](NC(=O)[C@H](CC(C)C)N(C)C(=O)[C@H](Cc1ccccc1)NC(=O)[C@H](Cc1ccc(O)cc1)NC(=O)CN1CCN(C(=O)CN(C)C(=O)CN(C)C(=O)CN(C)C(=O)CN(C)C(=O)CN(C)C(=O)CN(C)C(=O)CN(C)C(=O)CN(C)C(=O)CN(C)C(=O)CN(C)C(=O)CN(C)C(=O)CN(C)C(=O)CN(C)C(=O)CN(C)C(=O)CN(C)C(=O)CC[C@H](NC(=O)CC[C@H](NC(=O)CC[C@H](NC(=O)CCCCCCCCCCCCCCCCC(=O)O)C(=O)O)C(=O)O)C(=O)O)CC1)C(=O)N[C@@H](CCN)C(=O)N1CCC[C@H]1C(=O)N[C@@H](CCCNC(=N)N)C(=O)NCC(N)=O [Compound 76, C18DA-gGlu3-Sar15-PipAc-Tyr-Phe-NMeLeu-Nle-Dbu-Pro-Arg-Gly-NH2] (HELM PEPTIDE1{[O=C(O)CCCCCCCCCCCCCCCCC(=O)[*:2]].[gGlu].[gGlu].[gGlu].[Sar].[Sar].[Sar].[Sar].[Sar].[Sar].[Sar].[Sar].[Sar].[Sar].[Sar].[Sar].[Sar].[Sar].[Sar].[O=C(CN1CCN([*:1])CC1)[*:2]].Y.F.[meL].[Nle].[Dab].P.R.G.[am]}$$$$V2.0)
EC50 [1]: 1100 nM
EC50 [2]: 1.1 nM
EC50 [3]: 6.2 nM

CCCC[C@H](NC(=O)[C@H](CC(C)C)N(C)C(=O)[C@H](Cc1ccccc1)NC(=O)[C@H](Cc1ccc(O)cc1)NC(=O)CN1CCN(CCNC(=O)CN(C)C(=O)CN(C)C(=O)CN(C)C(=O)CN(C)C(=O)CN(C)C(=O)CN(C)C(=O)CN(C)C(=O)CN(C)C(=O)CN(C)C(=O)CN(C)C(=O)CN(C)C(=O)CN(C)C(=O)CN(C)C(=O)CN(C)C(=O)CN(C)C(=O)CC[C@H](NC(=O)CC[C@H](NC(=O)CC[C@H](NC(=O)CCCCCCCCCCCCCCCCC(=O)O)C(=O)O)C(=O)O)C(=O)O)CC1)C(=O)N[C@@H](CCCCN)C(=O)N(C)[C@@H](C)C(=O)N[C@@H](CCCNC(=N)N)C(=O)NCC(N)=O [Compound 47, C18DA-gGlu3-Sar15-AEPipAc-Tyr-Phe-NMeLeu-Nle-Lys-NMeAla-Arg-Gly-NH2] (HELM PEPTIDE1{[O=C(O)CCCCCCCCCCCCCCCCC(=O)[*:2]].[gGlu].[gGlu].[gGlu].[Sar].[Sar].[Sar].[Sar].[Sar].[Sar].[Sar].[Sar].[Sar].[Sar].[Sar].[Sar].[Sar].[Sar].[Sar].[O=C(CN1CCN(CCN[*:1])CC1)[*:2]].Y.F.[meL].[Nle].K.[meA].R.G.[am]}$$$$V2.0)
EC50 [1]: > 1000 nM
EC50 [2]: 9.3 nM
EC50 [3]: 32.6 nM
